Experimental findings from US10800791B2, “Triazole ACC inhibitors and uses thereof” (Gilead Apollo, LLC, priority 2015, dated 2020) are described below.

In brackets after ≈: the same amount, converted by molar mass. Where two headings read alike, the source gives them in different places.

In one assay the target is human (hACC2) (Homo sapiens, UniProt O00763). Briefly: In vitro ACC inhibition assay (ADP-Glo), hACC2. Format: biochemical. Conditions: Table 2b, additional results, 5 nM ACC2, 20 μM ATP, 20 μM acetyl-CoA. The method, then: The detailed procedure is as follows. […] 10 μL ADP glo reagent was added. […] 20 μL kinase detection reagent was added.
Sequence of human (hACC2) (O00763 whole entry): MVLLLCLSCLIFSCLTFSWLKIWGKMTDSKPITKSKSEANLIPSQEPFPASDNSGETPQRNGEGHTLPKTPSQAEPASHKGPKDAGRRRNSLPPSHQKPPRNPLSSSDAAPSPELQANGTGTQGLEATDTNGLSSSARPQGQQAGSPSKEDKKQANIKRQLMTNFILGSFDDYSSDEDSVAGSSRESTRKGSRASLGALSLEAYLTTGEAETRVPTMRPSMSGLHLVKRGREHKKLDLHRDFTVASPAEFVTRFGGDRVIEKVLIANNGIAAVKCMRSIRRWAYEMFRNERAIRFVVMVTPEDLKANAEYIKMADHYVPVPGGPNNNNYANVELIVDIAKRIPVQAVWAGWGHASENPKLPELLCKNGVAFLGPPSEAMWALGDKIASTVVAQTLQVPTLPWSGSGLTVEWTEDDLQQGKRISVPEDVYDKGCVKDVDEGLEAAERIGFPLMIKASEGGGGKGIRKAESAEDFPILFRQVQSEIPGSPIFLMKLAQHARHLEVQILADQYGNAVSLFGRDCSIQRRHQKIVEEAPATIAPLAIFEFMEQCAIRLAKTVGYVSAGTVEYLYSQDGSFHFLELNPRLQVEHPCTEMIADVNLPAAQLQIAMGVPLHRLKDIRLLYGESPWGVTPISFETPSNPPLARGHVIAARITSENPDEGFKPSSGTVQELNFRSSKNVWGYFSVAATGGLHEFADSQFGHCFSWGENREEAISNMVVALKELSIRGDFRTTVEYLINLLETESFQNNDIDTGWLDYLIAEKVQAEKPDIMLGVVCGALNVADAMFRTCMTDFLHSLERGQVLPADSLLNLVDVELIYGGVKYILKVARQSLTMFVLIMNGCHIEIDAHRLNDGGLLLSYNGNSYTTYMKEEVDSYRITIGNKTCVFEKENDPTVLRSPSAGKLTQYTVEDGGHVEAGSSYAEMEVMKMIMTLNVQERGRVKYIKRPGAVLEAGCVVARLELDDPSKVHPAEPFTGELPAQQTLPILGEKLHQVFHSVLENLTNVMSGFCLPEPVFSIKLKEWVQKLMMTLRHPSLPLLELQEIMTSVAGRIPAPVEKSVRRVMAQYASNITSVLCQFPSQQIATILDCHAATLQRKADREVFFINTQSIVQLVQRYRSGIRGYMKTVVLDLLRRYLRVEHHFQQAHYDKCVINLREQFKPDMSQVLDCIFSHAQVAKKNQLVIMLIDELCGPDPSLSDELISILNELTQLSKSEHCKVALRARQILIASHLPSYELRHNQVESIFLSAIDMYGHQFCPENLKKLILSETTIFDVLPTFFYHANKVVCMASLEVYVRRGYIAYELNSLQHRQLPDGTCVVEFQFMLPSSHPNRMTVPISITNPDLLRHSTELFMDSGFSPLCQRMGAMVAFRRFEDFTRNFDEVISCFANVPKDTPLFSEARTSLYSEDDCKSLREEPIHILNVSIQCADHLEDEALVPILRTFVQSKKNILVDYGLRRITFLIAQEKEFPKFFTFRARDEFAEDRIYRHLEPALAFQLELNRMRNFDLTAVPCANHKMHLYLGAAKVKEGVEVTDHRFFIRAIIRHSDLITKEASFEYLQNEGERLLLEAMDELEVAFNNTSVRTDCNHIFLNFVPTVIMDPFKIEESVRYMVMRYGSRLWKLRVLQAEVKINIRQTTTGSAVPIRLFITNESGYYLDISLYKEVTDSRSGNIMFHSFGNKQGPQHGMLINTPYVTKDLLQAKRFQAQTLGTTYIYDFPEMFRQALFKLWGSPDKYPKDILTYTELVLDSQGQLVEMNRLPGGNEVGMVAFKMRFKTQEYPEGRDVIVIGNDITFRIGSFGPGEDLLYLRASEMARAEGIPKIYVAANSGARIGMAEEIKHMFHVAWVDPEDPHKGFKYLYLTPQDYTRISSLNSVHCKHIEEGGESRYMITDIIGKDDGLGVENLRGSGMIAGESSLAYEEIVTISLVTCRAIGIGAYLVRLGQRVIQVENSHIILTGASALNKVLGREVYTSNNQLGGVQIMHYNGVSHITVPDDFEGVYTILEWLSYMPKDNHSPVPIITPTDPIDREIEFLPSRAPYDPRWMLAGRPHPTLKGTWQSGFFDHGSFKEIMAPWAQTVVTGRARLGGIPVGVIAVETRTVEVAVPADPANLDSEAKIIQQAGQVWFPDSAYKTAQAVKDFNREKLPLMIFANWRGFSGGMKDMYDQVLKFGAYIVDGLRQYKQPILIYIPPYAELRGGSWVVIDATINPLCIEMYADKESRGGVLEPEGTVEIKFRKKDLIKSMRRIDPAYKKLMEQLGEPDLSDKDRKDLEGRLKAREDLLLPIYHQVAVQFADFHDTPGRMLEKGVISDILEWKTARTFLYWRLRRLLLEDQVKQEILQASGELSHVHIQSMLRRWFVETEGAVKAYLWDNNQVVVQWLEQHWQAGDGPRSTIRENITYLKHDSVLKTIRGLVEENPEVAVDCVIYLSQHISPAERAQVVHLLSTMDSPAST
On the technique in general: ADP-Glo first removes unused ATP, then detects ADP through luciferase.

The next assay deals with C. albicans. The experiment in a line: Antifungal Activity Assay (broth microtiter MIC), C. albicans. The assay is classed as cell-based, Candida albicans. Conditions: Candida albicans, ATCC90028, 48 h. The method, boiled down:
(§1)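 Susceptibility was determined by CLSI M27-A3 broth microdilution in RPMI 1640 buffered with MOPS. Growth inhibition was scored visually after 48 h.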

In the next assay the test system is C. krusei. Briefly: Antifungal Activity Assay (broth microtiter MIC), C. krusei. Format: cell-based, Candida krusei. Conditions: Pichia kudriavzevii, ATCC6258, 48 h. The method, boiled down: as §1
The next assay deals with C. parapsilosis. Briefly: Antifungal Activity Assay (broth microtiter MIC), C. parapsilosis. Format: cell-based, Candida parapsilosis. Conditions: Lodderomyces parapsilosis, ATCC22019, 48 h. The method, boiled down: as §1
The next assay deals with Botrtyis cinerea (Bc). Briefly: Growth inhibition assay of fungal pathogens, Bc. Conditions: 48 h, growth inhibition at 48 hours vs 2% DMSO control. The assay is classed as cell-based. The method, boiled down:
(§2)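 Spores from sub-cultured plates were diluted in 17% V8 liquid medium and exposed to compound from DMSO stocks at final concentrations of 50, 10 and 2 ppm or 2, 0.4 and 0.08 ppm. OD600 and visual ratings at 48 h were compared with the 2% DMSO control to give percent growth inhibition.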

Assay [1] relates to Collectotrichum graminicola (Cg). The experiment in a line: Growth inhibition assay of fungal pathogens, Cg. Format: cell-based. Conditions: 48 h, growth inhibition at 48 hours vs 2% DMSO control. Summed up:
as §2

The subject of the next assay is Diplodia maydis (Dm). The experiment in a line: Growth inhibition assay of fungal pathogens, Dm. Conditions: Stenocarpella maydis, 48 h, growth inhibition at 48 hours vs 2% DMSO control. The assay is classed as cell-based. Summed up: as §2
The subject of assay [2] is Fusarium moniliforme (Fm). The experiment in a line: Growth inhibition assay of fungal pathogens, Fm. Format: cell-based. Conditions: Fusarium verticillioides, 48 h, read-out: Concentration at 90% Inhibition Fm. The method, boiled down:
as §2

Assay [3] deals with Fusarium virguliforme (Fv). Briefly: Growth inhibition assay of fungal pathogens, Fv. Conditions: 48 h. Format: cell-based. Summed up:
as §2

For assay [4], the system named is Phytophthora capsici (Pc). The experiment in a line: Growth inhibition assay of fungal pathogens, Pc. Format: cell-based. Conditions: 48 h. The method, boiled down: as §2
The next assay deals with Rhizoctonia solani (Rs). The experiment in a line: Growth inhibition assay of fungal pathogens, Rs. Format: cell-based. Conditions: 48 h.
The next assay relates to Septoria tritici (St). Briefly: Growth inhibition assay of fungal pathogens, St. The assay is classed as cell-based. Conditions: Zymoseptoria tritici, 48 h, growth inhibition at 48 hours vs 2% DMSO control. The method, boiled down:
as §2

A further assay deals with fungal (fACC2) (UniProt Q00955). Conditions: read-out: fACC2 (in vitro ACC2 Inhibition Assay, IC50); Table 2b, additional results; ADP-Glo, 5 nM ACC2, 20 μM ATP, 20 μM acetyl-CoA.
Sequence of fungal (fACC2) (Q00955 whole entry): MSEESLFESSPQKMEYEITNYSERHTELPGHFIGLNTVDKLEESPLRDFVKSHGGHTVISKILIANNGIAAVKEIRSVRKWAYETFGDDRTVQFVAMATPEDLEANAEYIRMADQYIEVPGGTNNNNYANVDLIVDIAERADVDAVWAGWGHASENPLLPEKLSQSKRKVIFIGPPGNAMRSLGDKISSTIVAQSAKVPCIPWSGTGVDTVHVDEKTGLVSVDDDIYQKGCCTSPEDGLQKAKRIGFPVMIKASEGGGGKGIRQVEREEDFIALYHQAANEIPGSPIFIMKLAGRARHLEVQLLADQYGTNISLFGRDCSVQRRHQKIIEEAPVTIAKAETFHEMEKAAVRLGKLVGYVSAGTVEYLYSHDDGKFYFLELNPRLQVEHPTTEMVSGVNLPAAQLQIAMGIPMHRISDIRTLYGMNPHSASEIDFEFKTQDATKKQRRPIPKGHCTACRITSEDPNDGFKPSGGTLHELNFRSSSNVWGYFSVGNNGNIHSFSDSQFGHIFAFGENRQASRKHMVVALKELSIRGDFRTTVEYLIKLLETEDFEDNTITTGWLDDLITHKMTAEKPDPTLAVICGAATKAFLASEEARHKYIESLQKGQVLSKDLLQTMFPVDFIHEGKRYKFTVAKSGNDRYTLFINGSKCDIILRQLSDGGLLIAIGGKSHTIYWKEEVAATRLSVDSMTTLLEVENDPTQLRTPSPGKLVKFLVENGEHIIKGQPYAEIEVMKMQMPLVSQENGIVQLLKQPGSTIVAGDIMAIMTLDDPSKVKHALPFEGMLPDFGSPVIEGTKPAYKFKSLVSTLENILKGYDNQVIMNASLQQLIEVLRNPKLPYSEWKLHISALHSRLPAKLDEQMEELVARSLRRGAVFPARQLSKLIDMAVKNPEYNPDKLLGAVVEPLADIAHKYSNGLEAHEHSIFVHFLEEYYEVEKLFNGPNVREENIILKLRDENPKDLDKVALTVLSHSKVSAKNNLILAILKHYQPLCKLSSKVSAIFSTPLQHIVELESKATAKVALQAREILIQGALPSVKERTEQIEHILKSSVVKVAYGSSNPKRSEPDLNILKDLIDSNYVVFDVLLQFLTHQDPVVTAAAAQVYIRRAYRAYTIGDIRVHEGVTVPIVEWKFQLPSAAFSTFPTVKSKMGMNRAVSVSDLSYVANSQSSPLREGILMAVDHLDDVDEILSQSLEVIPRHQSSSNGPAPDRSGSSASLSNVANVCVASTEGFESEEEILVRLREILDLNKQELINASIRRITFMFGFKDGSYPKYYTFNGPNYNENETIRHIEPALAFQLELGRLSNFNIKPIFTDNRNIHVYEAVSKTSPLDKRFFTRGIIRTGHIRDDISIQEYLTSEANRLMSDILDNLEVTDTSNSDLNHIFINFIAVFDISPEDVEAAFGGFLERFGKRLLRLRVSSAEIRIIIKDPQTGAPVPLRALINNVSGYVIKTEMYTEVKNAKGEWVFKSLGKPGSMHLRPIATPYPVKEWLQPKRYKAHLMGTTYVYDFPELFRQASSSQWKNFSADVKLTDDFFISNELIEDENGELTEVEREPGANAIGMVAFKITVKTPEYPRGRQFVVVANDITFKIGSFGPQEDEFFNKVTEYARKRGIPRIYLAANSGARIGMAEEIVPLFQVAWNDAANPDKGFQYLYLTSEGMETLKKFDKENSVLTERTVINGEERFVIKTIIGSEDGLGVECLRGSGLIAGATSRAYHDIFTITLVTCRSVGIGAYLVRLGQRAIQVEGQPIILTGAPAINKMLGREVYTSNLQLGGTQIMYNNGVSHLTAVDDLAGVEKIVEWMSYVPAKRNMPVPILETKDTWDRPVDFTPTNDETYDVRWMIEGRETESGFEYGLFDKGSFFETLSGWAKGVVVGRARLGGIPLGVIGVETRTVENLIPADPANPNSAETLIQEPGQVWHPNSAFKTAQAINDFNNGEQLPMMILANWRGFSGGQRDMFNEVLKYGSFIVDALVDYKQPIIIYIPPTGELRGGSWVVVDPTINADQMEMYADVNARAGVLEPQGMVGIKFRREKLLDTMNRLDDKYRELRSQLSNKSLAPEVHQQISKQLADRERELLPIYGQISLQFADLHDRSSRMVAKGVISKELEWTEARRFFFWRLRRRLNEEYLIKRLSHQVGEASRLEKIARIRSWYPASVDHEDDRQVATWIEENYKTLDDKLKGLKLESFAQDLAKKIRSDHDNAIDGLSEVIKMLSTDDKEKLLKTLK
Where [5] appears, read: read-out: MIC, C. albicans ATCC 90028, Table 3b (additional results), 3 replicates, MIC recorded at 48 h.
Where [6] appears, read: read-out: MIC, C. krusei ATCC 6258, Table 3b (additional results), 3 replicates, MIC recorded at 48 h.
Where [7] appears, read: read-out: MIC, C. parapsilosis ATCC 22019, Table 3b (additional results), 3 replicates, MIC recorded at 48 h.
Setting [8] is: read-out: Concentration at 90% Inhibition Bc, Botrtyis cinerea.
Where [9] appears, read: read-out: Concentration at 90% Inhibition Cg, Collectotrichum graminicola.
Where [10] appears, read: read-out: Concentration at 90% Inhibition Dm, Diplodia maydis.
[11] abbreviates: read-out: Concentration at 90% Inhibition Fv, Fusarium virguliforme, growth inhibition at 48 hours vs 2% DMSO control.
Where [12] appears, read: read-out: Concentration at 90% Inhibition Pc, Phytophthora capsici, growth inhibition at 48 hours vs 2% DMSO control.
The mark [13] stands for this setting: read-out: Concentration at 90% Inhibition Rs, Rhizoctonia solani, mycelial plugs, growth inhibition at 48 hours vs 2% DMSO control.
[14] abbreviates: read-out: Concentration at 90% Inhibition St, Septoria tritici.
Setting [15] is: Table 3b (additional results), ATCC 90028, 3 replicates, MIC recorded at 48 h, read-out: MIC, C. albicans ATCC 90028.
Where [16] appears, read: Table 3b (additional results), ATCC 6258, 3 replicates, MIC recorded at 48 h, read-out: MIC, C. krusei ATCC 6258.
The mark [17] stands for this setting: Table 3b (additional results), ATCC 22019, 3 replicates, MIC recorded at 48 h, read-out: MIC, C. parapsilosis ATCC 22019.
[18] abbreviates: Botrtyis cinerea, read-out: Concentration at 90% Inhibition Bc.
Where [19] appears, read: Collectotrichum graminicola, read-out: Concentration at 90% Inhibition Cg.
[20] abbreviates: Diplodia maydis, read-out: Concentration at 90% Inhibition Dm.
Setting [21] is: Fusarium moniliforme, growth inhibition at 48 hours vs 2% DMSO control.
[22] abbreviates: growth inhibition at 48 hours vs 2% DMSO control, read-out: Concentration at 90% Inhibition Fv.
Where [23] appears, read: growth inhibition at 48 hours vs 2% DMSO control, read-out: Concentration at 90% Inhibition Pc.
The mark [24] stands for this setting: mycelial plugs, growth inhibition at 48 hours vs 2% DMSO control, read-out: Concentration at 90% Inhibition Rs.
Setting [25] is: Septoria tritici, read-out: Concentration at 90% Inhibition St.

Usually IC50 stands for the concentration needed to halve the response being measured. The term MIC denotes the least concentration at which growth counts as inhibited. Turning to `COc1ccc(F)cc1[C@H](Cn1c(=O)n(C(C)(C)C(=O)NC(C)C)c(=O)c2c(C)c(-n3nccn3)sc21)OCCS(C)(=O)=O` [Compound I-248], the results for the half-inhibitory concentration (IC50) against human (hACC2) and at fungal (fACC2) were 10 to 40 nM and 0.3 to 1 nM, respectively. Further, the MIC in the assay on C. albicans (setting [5]), in the assay with C. krusei (setting [6]) and with C. parapsilosis (setting [7]) was 1.01 to 2 µg/mL (≈ 1.55 to 3.07 µM) in each case. For the same compound, the IC90 was 2 µg/mL (≈ 3.07 µM) in the assay on Botrtyis cinerea (Bc) (setting [8]); 0.4 µg/mL (≈ 0.615 µM) in assay [1] (setting [9]); 0.4 µg/mL (≈ 0.615 µM) in the assay on Diplodia maydis (Dm) (setting [10]); 0.4 µg/mL (≈ 0.615 µM) in [2]; 2 µg/mL (≈ 3.07 µM) in assay [3] (setting [11]); 10 µg/mL (≈ 15.4 µM) in [4] (setting [12]). The IC90 with Rhizoctonia solani (Rs) (setting [13]) is 0.08 µg/mL (≈ 0.123 µM); with Septoria tritici (St) (setting [14]), more than 50 µg/mL.

Turning to `COc1ccccc1[C@H](O)Cn1c(=O)n(C(C)(C)C(=O)NC(C)C)c(=O)c2c(C)c(-n3nccn3)sc21` [Compound I-251], the concentration for half-maximal inhibition (IC50) lay in the range of 10 to 40 nM against human (hACC2) and 1 to 5 nM at fungal (fACC2). Also, the results for the minimum inhibitory concentration (MIC) in the assay with C. albicans (setting [5]), in the assay with C. krusei (setting [6]) and in the assay with C. parapsilosis (setting [7]) were 1.01 to 2 µg/mL (≈ 1.92 to 3.8 µM), 0.25 to 1 µg/mL (≈ 0.475 to 1.9 µM) and 0.25 to 1 µg/mL (≈ 0.475 to 1.9 µM), respectively. The IC90 with Botrtyis cinerea (Bc) (setting [8]) was 10 µg/mL (≈ 19 µM); in [1] (setting [9]), more than 50 µg/mL; in the assay on Diplodia maydis (Dm) (setting [10]) it was more than 50 µg/mL; in assay [2], 2 µg/mL (≈ 3.8 µM); in assay [3] (setting [11]) it was 2 µg/mL (≈ 3.8 µM); in assay [4] (setting [12]), more than 50 µg/mL. Further, the IC90 was 2 µg/mL (≈ 3.8 µM) in the assay with Rhizoctonia solani (Rs) (setting [13]) and more than 50 µg/mL with Septoria tritici (St) (setting [14]).

Turning to `CCNC(=O)[C@@H](C)n1c(=O)c2c(C)c(-n3nccn3)sc2n(C[C@H](OCCC#N)c2cc(F)ccc2OC)c1=O` [Compound I-252], the 50% inhibitory concentration (IC50) at human (hACC2) and on fungal (fACC2) was 1 to 5 nM each time. In addition, the minimal inhibitory concentration (MIC) in the assay on C. albicans (setting [15]) is more than 4.01 µg/mL; in the assay on C. krusei (setting [16]) it was more than 4.01 µg/mL; in the assay on C. parapsilosis (setting [17]), 2.01 to 4 µg/mL (≈ 3.53 to 7.02 µM). The IC90 turned out to be 2 µg/mL (≈ 3.51 µM) in the assay with Botrtyis cinerea (Bc) (setting [18]); 0.08 µg/mL (≈ 0.14 µM) in [1] (setting [19]); 0.4 µg/mL (≈ 0.702 µM) in the assay with Diplodia maydis (Dm) (setting [20]); 0.08 µg/mL (≈ 0.14 µM) in [2] (setting [21]); 0.4 µg/mL (≈ 0.702 µM) in [3] (setting [22]); 10 µg/mL (≈ 17.6 µM) in assay [4] (setting [23]). Also, the IC90 in the assay with Rhizoctonia solani (Rs) (setting [24]) is 0.08 µg/mL (≈ 0.14 µM); with Septoria tritici (St) (setting [25]) it was more than 50 µg/mL.

For `CCNC(=O)[C@H](C)n1c(=O)c2c(C)c(-n3nccn3)sc2n(C[C@H](OCCC#N)c2cc(F)ccc2OC)c1=O` [Compound I-253], the IC50 against human (hACC2) fell in the range of 5 to 10 nM; at fungal (fACC2) it was 0.3 to 1 nM. For the same compound, the minimal inhibitory concentration (MIC) in the assay on C. albicans (setting [15]) is more than 4.01 µg/mL; with C. krusei (setting [16]) it was more than 4.01 µg/mL; with C. parapsilosis (setting [17]), 2.01 to 4 µg/mL (≈ 3.53 to 7.02 µM). Moreover, the IC90 was 2 µg/mL (≈ 3.51 µM) with Botrtyis cinerea (Bc) (setting [18]); 10 µg/mL (≈ 17.6 µM) in assay [1] (setting [19]); 10 µg/mL (≈ 17.6 µM) in the assay with Diplodia maydis (Dm) (setting [20]); 0.4 µg/mL (≈ 0.702 µM) in [2] (setting [21]); 10 µg/mL (≈ 17.6 µM) in assay [3] (setting [22]); more than 50 µg/mL in assay [4] (setting [23]). In addition, the IC90 in the assay on Rhizoctonia solani (Rs) (setting [24]) is 2 µg/mL (≈ 3.51 µM); with Septoria tritici (St) (setting [25]), more than 50 µg/mL.

With `CCNC(=O)C(C)(C)n1c(=O)c2c(C)c(-n3nccn3)sc2n(C[C@@H](O)c2cc(F)ccc2OC)c1=O` [Compound I-254], the IC50 against human (hACC2) was more than 40 nM; on fungal (fACC2), 1 to 5 nM. In addition, the minimal inhibitory concentration (MIC) with C. albicans (setting [15]), with C. krusei (setting [16]) and in the assay on C. parapsilosis (setting [17]) was 2.01 to 4 µg/mL (≈ 3.79 to 7.54 µM) each time. For the same compound, the IC90 in the assay on Botrtyis cinerea (Bc) (setting [18]) is more than 50 µg/mL; in assay [1] (setting [19]), more than 50 µg/mL; with Diplodia maydis (Dm) (setting [20]), more than 50 µg/mL; in assay [2] (setting [21]) it was 10 µg/mL (≈ 18.8 µM); in assay [3] (setting [22]), more than 50 µg/mL; in [4] (setting [23]) it was more than 50 µg/mL. Besides, the results for the IC90 in the assay with Rhizoctonia solani (Rs) (setting [24]) and in the assay with Septoria tritici (St) (setting [25]) were 2 µg/mL (≈ 3.77 µM) and more than 50 µg/mL, respectively.
